Laboratory results published in patent US6544768B1, “Mammalian soluble adenylyl cyclase” (Cornell Research Foundation, Inc., priority 1999, dated 2003).
Like-named read-outs stand apart in the source and are kept apart here.

What was measured:
truncated form of sAC = target: T1, truncated form of sAC (Rattus norvegicus, UniProt Q9Z286); experiment: P site ligand test on truncated sAC; type: biochemical
T1 construct: sACt, amino acids 1-469
T1 sequence (Q9Z286 1-469): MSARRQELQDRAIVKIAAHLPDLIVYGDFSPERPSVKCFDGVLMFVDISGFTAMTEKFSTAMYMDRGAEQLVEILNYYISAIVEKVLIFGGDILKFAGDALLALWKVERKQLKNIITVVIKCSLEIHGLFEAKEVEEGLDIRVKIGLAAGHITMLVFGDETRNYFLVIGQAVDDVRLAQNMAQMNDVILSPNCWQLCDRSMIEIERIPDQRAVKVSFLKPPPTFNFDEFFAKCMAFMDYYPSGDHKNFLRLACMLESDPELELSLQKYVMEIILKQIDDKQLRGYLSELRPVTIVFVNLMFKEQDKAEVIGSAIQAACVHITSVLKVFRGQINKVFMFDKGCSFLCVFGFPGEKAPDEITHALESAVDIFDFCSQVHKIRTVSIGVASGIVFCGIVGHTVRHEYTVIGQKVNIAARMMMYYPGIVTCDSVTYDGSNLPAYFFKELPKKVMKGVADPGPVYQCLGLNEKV
Text: (3) P site ligands and inhibitors of other ATP-utilizing enzymes.

sAC [1] = settings: read-out: Km of sAC for substrate ATP; cited from earlier work
sAC [2] = experiment: Soluble adenylyl cyclase activity in cytosolic extracts from rat testis; settings: read-out: Km for ATP; in the presence of MnCl2
tmACs = settings: read-out: Km of tmACs for substrate ATP; cited from earlier work
[3] = target: T2, full-length and truncated forms of sAC (Rattus norvegicus, UniProt Q9Z286); experiment: Adenylyl cyclase assay in whole-cell sonicates from sAC-transfected HEK293 cells; type: biochemical; settings: both full-length and truncated forms
T2 construct: we heterologously expressed the full-length cDNA in HEK293 cells; expressed in transfected cells; host or cells: HEK293, transient, pBK-CMV
T2 sequence (Q9Z286 whole entry, the tested form may be a part): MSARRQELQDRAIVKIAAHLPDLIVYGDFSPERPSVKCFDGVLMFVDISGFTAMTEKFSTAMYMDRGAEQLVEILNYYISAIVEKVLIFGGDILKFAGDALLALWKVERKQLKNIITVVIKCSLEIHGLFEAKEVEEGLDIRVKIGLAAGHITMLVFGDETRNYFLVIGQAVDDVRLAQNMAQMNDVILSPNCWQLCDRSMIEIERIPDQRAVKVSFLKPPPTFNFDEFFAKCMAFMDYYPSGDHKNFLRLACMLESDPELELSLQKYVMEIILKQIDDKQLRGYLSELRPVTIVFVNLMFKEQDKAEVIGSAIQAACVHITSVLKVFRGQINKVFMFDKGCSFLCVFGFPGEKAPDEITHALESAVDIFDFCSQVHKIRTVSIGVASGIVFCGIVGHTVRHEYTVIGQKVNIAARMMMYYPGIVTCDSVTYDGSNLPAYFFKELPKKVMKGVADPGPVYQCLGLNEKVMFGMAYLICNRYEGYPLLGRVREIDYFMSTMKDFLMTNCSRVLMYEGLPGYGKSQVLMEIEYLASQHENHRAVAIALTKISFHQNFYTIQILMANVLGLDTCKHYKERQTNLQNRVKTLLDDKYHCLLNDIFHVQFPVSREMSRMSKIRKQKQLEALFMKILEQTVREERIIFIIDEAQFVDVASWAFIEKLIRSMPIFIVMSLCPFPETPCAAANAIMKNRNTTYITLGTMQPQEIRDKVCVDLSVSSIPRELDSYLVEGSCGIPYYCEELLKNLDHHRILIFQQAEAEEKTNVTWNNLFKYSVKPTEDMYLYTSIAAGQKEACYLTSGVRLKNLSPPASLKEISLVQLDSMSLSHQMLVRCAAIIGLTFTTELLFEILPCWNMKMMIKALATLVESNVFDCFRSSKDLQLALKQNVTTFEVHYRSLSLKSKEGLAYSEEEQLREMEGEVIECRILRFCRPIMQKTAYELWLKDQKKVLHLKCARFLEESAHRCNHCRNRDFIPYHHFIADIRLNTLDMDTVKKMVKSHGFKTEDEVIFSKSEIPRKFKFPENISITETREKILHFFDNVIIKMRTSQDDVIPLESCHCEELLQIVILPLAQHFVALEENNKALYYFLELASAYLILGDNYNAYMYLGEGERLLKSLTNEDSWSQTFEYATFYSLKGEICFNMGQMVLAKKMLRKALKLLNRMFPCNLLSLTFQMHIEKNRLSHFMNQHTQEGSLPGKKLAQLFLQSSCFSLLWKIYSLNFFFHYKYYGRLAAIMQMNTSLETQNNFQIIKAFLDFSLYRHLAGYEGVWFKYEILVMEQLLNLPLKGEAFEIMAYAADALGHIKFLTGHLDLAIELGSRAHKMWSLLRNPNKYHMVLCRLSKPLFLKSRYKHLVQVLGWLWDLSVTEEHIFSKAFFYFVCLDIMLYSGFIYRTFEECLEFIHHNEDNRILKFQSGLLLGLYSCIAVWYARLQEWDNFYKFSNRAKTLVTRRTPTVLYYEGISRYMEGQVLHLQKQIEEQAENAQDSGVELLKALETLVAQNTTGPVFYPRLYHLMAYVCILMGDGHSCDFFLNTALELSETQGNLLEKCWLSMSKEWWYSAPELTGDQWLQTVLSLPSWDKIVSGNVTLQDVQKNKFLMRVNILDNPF
Text: Heterologous Expression. To confirm that the gene we isolated encoded an adenylyl cyclase, we heterologously expressed the full-length cDNA in HEK293 cells. The full-length and truncated sAC cDNAs were expressed from the library vector (pBK-CMV) under the control of the cytomegalovirus promoter after deletion of the intervening bacterial promoter sequences (as an NheI-SpeI fragment). The truncated sAC cDNA (sACt) represented a library clone that was missing an exon. The resultant protein shifted the reading frame after valine 469 (FIG. 1; underline), introducing two incorrect amino acids (serine and cysteine) followed by a stop codon. Expression constructs were transiently introduced into HEK293 by lipofectamine—mediated transfection (Life Technologies, Grand Island, N.Y.). One or two days after transfection, cells were harvested, resuspended in lysis buffer (50 mM Tris-HCl, pH 7.5/1 mM EDTA/1 mM DTT/0.1 mg/ml Leupeptin/1 mM phenylmethylsulfonyl fluoride) and disrupted by microtip probe sonication on ice. Whole-cell sonicates were ultramicrocentrifuged at >100,000×g for 10 minutes. Supernatants were cleared by a second centrifugation to yield ‘cytosolic’ extracts. Pellets were resuspended in lysis buffer by passage through a 27.5-gauge needle to generate ‘particulate fraction. […]

[4] = target: T3, Purified recombinant sACt protein (Rattus norvegicus, UniProt Q9Z286); experiment: In vitro adenylyl cyclase assay with purified recombinant sACt; type: biochemical; settings: for % Basal (adenylyl cyclase activity relative to activity in the absence of any salts): salts at 50 mM
T3 construct: sACt, amino acids 1-469, plus a C-terminal Hexahistidine tag; Hexahistidine (C); made in house; host or cells: insect HiFive cells (baculovirus, Bac-to-Bac)
T3 sequence (Q9Z286 1-469): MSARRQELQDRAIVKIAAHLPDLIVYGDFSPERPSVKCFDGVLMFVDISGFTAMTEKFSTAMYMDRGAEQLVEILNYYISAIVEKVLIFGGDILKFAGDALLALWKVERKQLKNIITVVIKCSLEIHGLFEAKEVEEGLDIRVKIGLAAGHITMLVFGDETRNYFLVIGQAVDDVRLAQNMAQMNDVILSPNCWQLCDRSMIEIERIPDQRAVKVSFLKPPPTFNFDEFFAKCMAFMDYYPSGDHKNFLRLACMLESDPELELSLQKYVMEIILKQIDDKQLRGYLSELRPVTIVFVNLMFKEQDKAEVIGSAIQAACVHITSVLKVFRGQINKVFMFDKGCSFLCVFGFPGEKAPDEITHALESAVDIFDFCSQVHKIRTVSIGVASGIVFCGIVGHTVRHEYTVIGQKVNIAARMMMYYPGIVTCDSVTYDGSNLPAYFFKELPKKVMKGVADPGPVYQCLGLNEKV
Experimental: (§1) The cell lines were starved for bicarbonate (grown in HEPES-bufferred, NaHCO3-free D-MEM under ambient CO2) for 24 hours. Cellular cAMP accumulation and in vitro adenylyl cyclase activity in the presence of [a^32P] ATP and MnCl2 or MgCl2 were assayed. In vitro adenylyl cyclase assays were performed at pH 7.5 in Tris-buffered solutions.
Kinetic parameters were determined using KinetAsyst II (IntelliKinetics).

soluble adenylyl cyclase = settings: cited from earlier work
sACfl = sACfl (Rattus norvegicus, UniProt Q9Z286)
Chain of sACfl (Q9Z286 whole entry): as the sequence (Q9Z286 whole entry, the tested form may be a part) above
Experimental: as §1

[5] = tested on: HEK293/V cells, which express endogenous tmACs; settings: for Cellular cAMP accumulation in HEK293/V: vector transfected cells
Experimental: as §1
Among mammalian adenylyl cyclases, sAC appears to be the only form regulated by bicarbonate ions.

Spirulina platensis CyaC [6] = target: T4, Spirulina platensis CyaC (Limnospira platensis, UniProt O32393); experiment: biochemical
T4 sequence (O32393 1-1202): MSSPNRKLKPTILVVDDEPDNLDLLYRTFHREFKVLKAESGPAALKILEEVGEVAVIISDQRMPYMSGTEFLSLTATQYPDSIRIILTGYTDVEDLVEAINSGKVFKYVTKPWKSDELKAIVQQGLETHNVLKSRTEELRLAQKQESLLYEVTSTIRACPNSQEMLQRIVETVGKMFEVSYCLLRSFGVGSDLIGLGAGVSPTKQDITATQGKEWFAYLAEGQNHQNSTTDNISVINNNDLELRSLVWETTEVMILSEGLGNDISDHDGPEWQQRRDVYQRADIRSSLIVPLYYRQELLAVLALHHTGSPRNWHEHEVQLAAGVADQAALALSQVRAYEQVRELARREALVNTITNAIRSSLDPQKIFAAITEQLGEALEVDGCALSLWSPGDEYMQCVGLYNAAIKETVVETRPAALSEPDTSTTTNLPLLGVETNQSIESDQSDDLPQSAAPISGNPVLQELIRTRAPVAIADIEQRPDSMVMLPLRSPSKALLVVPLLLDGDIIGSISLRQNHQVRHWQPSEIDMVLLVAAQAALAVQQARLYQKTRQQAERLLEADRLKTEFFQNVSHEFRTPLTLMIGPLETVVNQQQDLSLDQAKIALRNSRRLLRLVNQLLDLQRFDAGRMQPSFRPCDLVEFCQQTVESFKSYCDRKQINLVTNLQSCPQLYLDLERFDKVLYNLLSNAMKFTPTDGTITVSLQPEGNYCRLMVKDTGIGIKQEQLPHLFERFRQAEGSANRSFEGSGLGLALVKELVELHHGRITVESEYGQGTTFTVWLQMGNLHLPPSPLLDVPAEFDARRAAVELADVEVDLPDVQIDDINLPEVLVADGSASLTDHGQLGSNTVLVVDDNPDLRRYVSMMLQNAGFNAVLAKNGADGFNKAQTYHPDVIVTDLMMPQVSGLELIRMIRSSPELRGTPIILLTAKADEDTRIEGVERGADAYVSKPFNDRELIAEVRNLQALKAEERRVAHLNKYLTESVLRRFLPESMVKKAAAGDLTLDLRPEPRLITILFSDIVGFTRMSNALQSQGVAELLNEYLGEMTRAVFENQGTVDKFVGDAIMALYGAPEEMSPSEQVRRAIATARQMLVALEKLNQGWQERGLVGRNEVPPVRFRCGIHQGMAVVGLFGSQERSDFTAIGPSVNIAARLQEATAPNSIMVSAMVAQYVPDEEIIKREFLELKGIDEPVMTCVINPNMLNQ

sAC [7] = experiment: Adenylyl cyclase activity in anti-sAC immunoprecipitates from rat testis cytosol; type: biochemical; settings: 40 mM NaHCO3 or 100 μM Forskolin
Experimental: Rat testis were tested for sAC activity by immunoassay. Immunoprecipitates from rat testis cytosol were tested using either pre-immune serum or α-sAC antisera. […]. […]. Data in FIG. 4b are presented as pmol of cAMP formed over 20 minutes, and values represent averages of duplicate determinations with standard deviations indicated.

Spirulina platensis CyaC [8] = target: T4, Spirulina platensis CyaC; settings: 0-60 mM NaHCO3, 100 μM ATP, 5 mM MnCl2
sAC [9] = experiment: Ecdysone inducible sAC expression in transiently transfected NIH3T3 cells; type: cell-based; settings: transient transfection
Text: The commercially available (Invitrogen) ecdysone inducible system (No, D. et al., PNAS, 1996, 93:3346-3351) is based on an insect hormone regulated transcriptional activator, the ecdysone receptor (EcR). This system takes advantage of the specificity of EcR for its own response element, and the lack of any cross-reactivity by any mammalian transcription factor. We stably introduced both the EcR and its requisite partner, Retinoid X Receptor (RXR) into NIH3T3 cells. Additionally, to confirm the efficacy of this expression system, we performed pilot experiments with 3T3 cells transiently transfected with both plasmids. […] This induction was overcome by co-expression of sAC antisense (αsAA). The sequence was the entire sAC truncated (sAC trunc) sequence cloned in reverse orientation with respect to the promoter. The coding sequence for sAC trunc was approximately 1 through 1710 and the antisense was nucleotides 1710 through 1. For the antisense experiment, we transiently transfected three plasmids into NIH3T3 cells: 1) Ecdysone receptor/RXR expression plasmid; 2) sAC trunc expression plasmid (driven by ecdysone promoter) and 3) antisense expression plasmid (driven by ecdysone promoter).

[10] = target: sAC as co-expressed with mammalian CAP; experiment: cell-based or functional assay
sAC [11] = target: T5, sAC (Rattus norvegicus, UniProt Q9Z286); experiment: Co-expression of mammalian CAP with sAC
T5 construct: expressed in transfected cells
T5 sequence (Q9Z286 whole entry): as the sequence (Q9Z286 whole entry, the tested form may be a part) above

## Nc1ncnc2c1ncn2[C@H]1CC[C@@H](CO)O1 [2′,3′-dideoxyadenosine]
Truncated form of sAC
  Sensitivity of sAC to P site ligand: insensitivity

## Nc1ncnc2c1ncn2[C@@H]1O[C@H](COP(=O)(O)OP(=O)(O)OP(=O)(O)O)[C@@H](O)[C@H]1O [ATP]
sAC [1]
  Km: ~1000 µM
sAC [2]
  Km: 1200 µM
tmACs
  Km: ~100 µM

## Nc1nc2c(ncn2[C@@H]2O[C@H](COP(=O)(O)OP(=O)(O)OP(O)(O)=S)[C@@H](O)[C@H]2O)c(=O)[nH]1 [GTPγS]
[3]
  Response of heterologously expressed sAC to stimulators of tmAC activity: completely insensitive

## O=C([O-])O.[K+] [KHCO3]
[4]
  % Basal (adenylyl cyclase activity relative to activity in the absence of any salts): 412 ± 6.1%

## N[C@@H](Cc1ccc(O)c(O)c1)C(=O)O [L-dopa]
Soluble adenylyl cyclase
  Potency of sAC inhibition relative to catechol estrogens (fold less potent): 1,000 fold

## O=P([O-])([O-])O.[Na+].[Na+] [Na2HPO4]
[4]
  % Basal (adenylyl cyclase activity relative to activity in the absence of any salts): 75 ± 2.6%

## O=S([O-])[O-].[Na+].[Na+] [Na2SO3]
[4]
  % Basal (adenylyl cyclase activity relative to activity in the absence of any salts): 164 ± 2.9%

## O=S(=O)([O-])[O-].[Na+].[Na+] [Na2SO4]
[4]
  % Basal (adenylyl cyclase activity relative to activity in the absence of any salts): 66 ± 4.6%

## [Cl-].[Na+] [NaCl]
[4]
  % Basal (adenylyl cyclase activity relative to activity in the absence of any salts): 93 ± 11.8%

## O=C(O)O [NaHCO3]
[4]
  EC50: 25.4 ± 7.6 mM
  % Basal (adenylyl cyclase activity relative to activity in the absence of any salts): 411 ± 5.3%
[4]; 0-80 mM NaHCO3, 10 mM ATP, 40 mM MgCl2
  Fold stimulation of purified enzyme: greater than seven-fold
sACfl; 50 mM NaHCO3
  Adenylyl cyclase activity in cellular lysates from HEK293/sACfl: stimulated
sACfl; after 24 hours bicarbonate starvation
  Cellular cAMP accumulation in HEK293/sACfl: stimulated cAMP accumulation
[5]
  Cellular cAMP accumulation in HEK293/V: not in vector transfected HEK293 cells
[5]; listed as bicarbonate
  Cellular cAMP accumulation in HEK293/V: unaffected
[5]; with forskolin
  tmAC activity submaximally stimulated by forskolin: insensitive
Spirulina platensis CyaC [6]
  EC50: 18.8 ± 1.6 mM
sAC [7]
  Effect on immunoprecipitated AC activity: stimulated
Spirulina platensis CyaC [8]
  Fold stimulation of CyaC AC activity: 2.5 fold

## O=S([O-])O.[Na+] [NaHSO3]
[4]
  % Basal (adenylyl cyclase activity relative to activity in the absence of any salts): 138 ± 4.6%

## NCCc1ccc(O)c(O)c1 [dopamine]
Soluble adenylyl cyclase
  Potency of sAC inhibition relative to catechol estrogens (fold less potent): 1,000 fold

## NC[C@H](O)c1ccc(O)c(O)c1 [norepinephrine]
Soluble adenylyl cyclase
  Potency of sAC inhibition relative to catechol estrogens (fold less potent): 1,000 fold

## CC(C)CC[C@@H](O)[C@](C)(O)[C@H]1CC[C@@]2(O)C3=CC(=O)[C@@H]4C[C@@H](O)[C@@H](O)C[C@]4(C)[C@H]3CC[C@]12C [ponasterone A]
sAC [9]
  sAC activity in cells with ecdysone inducible sAC expression: dependent increase in sAC activity

## mammalian ortholog of yeast CAP (Cyclase Associated Protein)
[10]
  sAC activity on co-expression: 4 fold

B1: mammalian CAP: mammalian ortholog of yeast Cyclase Associated Protein, co-expressed with sAC (protein, UniProt Q01518 2-475, looked up)
Adenylyl cyclase-associated …: ADMQNLVERLERAVGRLEAVSHTSDMHRGYADSPSKAGAAPYVQAFDSLLAGPVAEYLKISKEIGGDVQKHAEMVHTGLKLERALLVTASQCQQPAENKLSDLLAPISEQIKEVITFREKNRGSKLFNHLSAVSESIQALGWVAMAPKPGPYVKEMNDAAMFYTNRVLKEYKDVDKKHVDWVKAYLSIWTELQAYIKEFHTTGLAWSKTGPVAKELSGLPSGPSAGSCPPPPPPCPPPPPVSTISCSYESASRSSLFAQINQGESITHALKHVSDDMKTHKNPALKAQSGPVRSGPKPFSAPKPQTSPSPKRATKKEPAVLELEGKKWRVENQENVSNLVIEDTELKQVAYIYKCVNTTLQIKGKINSITVDNCKKLGLVFDDVVGIVEIINSKDVKVQVMGKVPTISINKTDGCHAYLSKNSLDCEIVSAKSSEMNVLIPTEGGDFNEFPVPEQFKTLWNGQKLVTTVTEIAG
sAC [11]
  Increase of sAC activity on co-expression: approximately four-fold
